Measured values as given in patent publication US11377442B2, “Small molecule agonists and antagonists of NR2F6 activity” (ZANDER THERAPEUTICS, INC., priority 2016, dated 2022).
Read-outs that look alike come from different tables or passages of the source.

Columns and labels:
Assay type in all cases: cell-based
ERα [1] = biological target: T1, ERα (Homo sapiens, UniProt P03372); experiment: Counterscreening, Firefly signal with ERα transient transfection (Firefly_ERa)
T1 construct: expressed in transfected cells
T1 sequence (P03372 1-595): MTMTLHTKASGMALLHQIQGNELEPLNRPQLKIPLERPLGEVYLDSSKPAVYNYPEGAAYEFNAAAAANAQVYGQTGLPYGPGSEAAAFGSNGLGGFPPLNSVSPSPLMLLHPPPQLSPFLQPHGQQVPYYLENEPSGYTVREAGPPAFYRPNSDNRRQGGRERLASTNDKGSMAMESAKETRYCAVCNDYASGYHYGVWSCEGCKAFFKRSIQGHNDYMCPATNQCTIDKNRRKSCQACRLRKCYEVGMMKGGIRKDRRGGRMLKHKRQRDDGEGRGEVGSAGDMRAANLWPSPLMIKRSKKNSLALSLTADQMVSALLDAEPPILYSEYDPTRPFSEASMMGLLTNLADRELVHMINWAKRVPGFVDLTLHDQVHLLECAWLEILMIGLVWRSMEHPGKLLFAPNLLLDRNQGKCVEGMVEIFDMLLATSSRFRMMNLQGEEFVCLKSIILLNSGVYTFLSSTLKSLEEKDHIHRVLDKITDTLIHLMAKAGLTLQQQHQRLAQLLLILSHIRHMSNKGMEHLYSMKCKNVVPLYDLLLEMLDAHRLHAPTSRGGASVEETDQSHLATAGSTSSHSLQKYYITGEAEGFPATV

NR2F6 = biological target: T2, NR2F6 (Homo sapiens, UniProt P10588); experiment: NR2F6 agonist screening, Firefly signal cmpd/DMSO
T2 construct: expressed in transfected cells; also transient transfection
T2 sequence (P10588 1-404): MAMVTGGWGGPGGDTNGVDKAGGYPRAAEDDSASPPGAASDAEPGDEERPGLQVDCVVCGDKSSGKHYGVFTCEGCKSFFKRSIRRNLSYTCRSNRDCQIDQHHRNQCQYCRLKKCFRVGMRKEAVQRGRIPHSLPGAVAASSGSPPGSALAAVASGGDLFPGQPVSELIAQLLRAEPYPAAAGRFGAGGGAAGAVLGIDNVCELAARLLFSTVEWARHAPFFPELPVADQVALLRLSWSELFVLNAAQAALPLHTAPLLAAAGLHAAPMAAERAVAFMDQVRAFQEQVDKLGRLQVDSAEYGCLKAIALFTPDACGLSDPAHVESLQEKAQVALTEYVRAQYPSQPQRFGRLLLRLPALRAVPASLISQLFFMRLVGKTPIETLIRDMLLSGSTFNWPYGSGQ

ERα [2] = biological target: T1, ERα; experiment: Counterscreening, Firefly signal with ERα transient transfection (Firefly_ERa); settings: 10 uM
Method: The methodology for screening candidate compounds as NR2F6 agonists was as follows: For primary screening, hit criteria was ACT %>DMSO control+5*SD (DSO control) at 10 μM, or any compound with S/B>2. For rescreening, hit criteria was ACT %>DMSO control+3*SD (DSO control) in each replicate at 10 μM. For counterscreening, hit criteria was mean ACT<DMSO control+3*SD (DMSO control) with ERα transient transfection in duplicate at 10 μM.

Renilla = Renilla signal in NR2F6 agonist screening, cmpd/DMSO; settings: for fold induction at 2 µM / fold induction at 10 µM / fold induction at 40 µM: Renilla, read-out: Renilla F4, cmpd/DMSO (mean)
Renilla_ERa = experiment: Renilla signal in ERα counterscreen (Renilla_ERa); settings: for fold induction at 2 µM / fold induction at 10 µM / fold induction at 40 µM: read-out: Renilla ERalpha transient, cmpd/DMSO (mean)

Row | Compound | Firefly ERalpha transient, cmpd/DMSO (mean) (ERα [1]; 2 uM) | Firefly ERalpha transient, cmpd/DMSO (mean) (ERα [1]; 40 uM) | Firefly F4, cmpd/DMSO (mean) (NR2F6; 2 uM, clone F4) | Firefly F4, cmpd/DMSO (mean) (NR2F6; 10 uM, clone F4) | Firefly F4, cmpd/DMSO (mean) (NR2F6; 40 uM, clone F4) | Firefly ERalpha transient, cmpd/DMSO (mean) (ERα [2]) | Firefly ERalpha transient, cmpd/DMSO (mean) (ERα [1]; Table 15, 2 uM) | Firefly ERalpha transient, cmpd/DMSO (mean) (ERα [1]; Table 15, 40 uM) | Firefly F4, cmpd/DMSO (mean) (NR2F6; Table 15, 2 uM) | Firefly F4, cmpd/DMSO (mean) (NR2F6; Table 15, 10 uM) | Firefly F4, cmpd/DMSO (mean) (NR2F6; Table 15, 40 uM) | Firefly ERalpha transient, cmpd/DMSO (mean) (ERα [2]; Table 15) | fold induction at 2 µM (Renilla; 2 uM, clone F4) | fold induction at 10 µM (Renilla; 10 uM, clone F4) | fold induction at 40 µM (Renilla; 40 uM, clone F4) | fold induction at 2 µM (Renilla_ERa; 2 uM) | fold induction at 10 µM (Renilla_ERa; 10 uM) | fold induction at 40 µM (Renilla_ERa; 40 uM) | fold induction at 2 µM (Renilla; Table 15, 2 uM) | fold induction at 10 µM (Renilla; Table 15, 10 uM) | other results
1 | CCOC(=O)Cc1sc(Nc2nc(C)cc(C)n2)nc1-c1ccccc1 [Compound 28] | 1.0 | 0.6 | 1.2 | 0.9 | 0.6 | 0.5 |  |  |  |  |  |  | 1.1 | 0.8 | 0.6 | 1.2 | 0.8 | 0.7 |  |  | 
2 | CCCNc1nc(N2CCOCC2)nc(N2CC3CC(C2)c2cccc(=O)n2C3)n1 (stereo not drawn) [Compound 37] | 1.1 | 1.2 | 1.3 | 1.1 | 1.3 | 1.4 |  |  |  |  |  |  | 0.9 | 1.2 | 1.3 | 1.1 | 1.1 | 1.1 |  |  | 
3 | CC(C)Nc1nc(N2CCOCC2)nc(N2CCn3c(cccc3=O)C2)n1 [Compound 34] | 1.1 | 1.2 | 0.9 | 0.8 | 0.9 | 1.2 |  |  |  |  |  |  |  |  |  |  |  |  |  |  | Renilla F4, cmpd/DMSO (mean) (Renilla; 2 uM, clone F4): 0.9; Renilla F4, cmpd/DMSO (mean) (Renilla; 10 uM, clone F4): 1.1; Renilla F4, cmpd/DMSO (mean) (Renilla; 40 uM, clone F4): 0.9; Renilla ERalpha transient, cmpd/DMSO (mean) (Renilla_ERa; 2 uM): 1.0; Renilla ERalpha transient, cmpd/DMSO (mean) (Renilla_ERa; 10 uM): 1.1; Renilla ERalpha transient, cmpd/DMSO (mean) (Renilla_ERa; 40 uM): 1.1
4 | O=c1cccc2n1CCN(c1nc(NCC3CCCO3)nc(N3CCOCC3)n1)C2 (stereo not drawn) [Compound 33] | 1.3 | 1.4 | 0.8 | 1.0 | 1.1 | 1.3 |  |  |  |  |  |  |  |  |  |  |  |  |  |  | Renilla F4, cmpd/DMSO (mean) (Renilla; 2 uM, clone F4): 1.2; Renilla F4, cmpd/DMSO (mean) (Renilla; 10 uM, clone F4): 1.3; Renilla F4, cmpd/DMSO (mean) (Renilla; 40 uM, clone F4): 1.4; Renilla ERalpha transient, cmpd/DMSO (mean) (Renilla_ERa; 2 uM): 1.2; Renilla ERalpha transient, cmpd/DMSO (mean) (Renilla_ERa; 10 uM): 1.1; Renilla ERalpha transient, cmpd/DMSO (mean) (Renilla_ERa; 40 uM): 1.3
5 | O=c1cccc2n1CCN(c1nc(NCC3CCCO3)nc(N3CCCC3)n1)C2 (stereo not drawn) [Compound 42] | 2.3 | 1.0 | 1.6 | 0.8 | 0.9 | 1.0 |  |  |  |  |  |  |  |  |  |  |  |  |  |  | Renilla F4, cmpd/DMSO (mean) (Renilla; 2 uM, clone F4): 0.7; Renilla F4, cmpd/DMSO (mean) (Renilla; 10 uM, clone F4): 0.8; Renilla F4, cmpd/DMSO (mean) (Renilla; 40 uM, clone F4): 1.1; Renilla ERalpha transient, cmpd/DMSO (mean) (Renilla_ERa; 2 uM): 0.9; Renilla ERalpha transient, cmpd/DMSO (mean) (Renilla_ERa; 10 uM): 1.0; Renilla ERalpha transient, cmpd/DMSO (mean) (Renilla_ERa; 40 uM): 1.0

Second part, led by results:

Row | Firefly ERalpha transient, cmpd/DMSO (mean) (ERα [1]; 2 uM) | Firefly ERalpha transient, cmpd/DMSO (mean) (ERα [1]; 40 uM) | Firefly F4, cmpd/DMSO (mean) (NR2F6; 2 uM, clone F4) | Firefly F4, cmpd/DMSO (mean) (NR2F6; 10 uM, clone F4) | Firefly F4, cmpd/DMSO (mean) (NR2F6; 40 uM, clone F4) | Firefly ERalpha transient, cmpd/DMSO (mean) (ERα [2]) | Firefly ERalpha transient, cmpd/DMSO (mean) (ERα [1]; Table 15, 2 uM) | Firefly ERalpha transient, cmpd/DMSO (mean) (ERα [1]; Table 15, 40 uM) | Firefly F4, cmpd/DMSO (mean) (NR2F6; Table 15, 2 uM) | Firefly F4, cmpd/DMSO (mean) (NR2F6; Table 15, 10 uM) | Firefly F4, cmpd/DMSO (mean) (NR2F6; Table 15, 40 uM) | Firefly ERalpha transient, cmpd/DMSO (mean) (ERα [2]; Table 15) | Compound | fold induction at 2 µM (Renilla; 2 uM, clone F4) | fold induction at 10 µM (Renilla; 10 uM, clone F4) | fold induction at 40 µM (Renilla; 40 uM, clone F4) | fold induction at 2 µM (Renilla_ERa; 2 uM) | fold induction at 10 µM (Renilla_ERa; 10 uM) | fold induction at 40 µM (Renilla_ERa; 40 uM) | fold induction at 2 µM (Renilla; Table 15, 2 uM) | fold induction at 10 µM (Renilla; Table 15, 10 uM) | other results
6 |  |  |  |  |  |  | 0.9 | 1.1 | 1.0 | 0.5 | 0.9 | 1.1 | CC(=O)Nc1ccc(NS(C)(=O)=O)c2nonc12 [Compound Z15] |  |  |  |  |  |  | 0.8 | 1.1 | fold induction at 40 µM (Renilla; Table 15, 40 uM): 1; fold induction at 2 µM (Renilla_ERa; Table 15, 2 uM): 1; fold induction at 10 µM (Renilla_ERa; Table 15, 10 uM): 1; fold induction at 40 µM (Renilla_ERa; Table 15, 40 uM): 0.9
7 |  |  |  |  |  |  | 1.1 | 0.7 | 1.5 | 1.1 | 1.2 | 1.5 | CCOC(=O)c1cnc2c(C)cc(C)cc2c1N1CCC(N(C)C)CC1 [Compound Z68] |  |  |  |  |  |  | 0.9 | 1 | fold induction at 40 µM (Renilla; Table 15, 40 uM): 0.6; fold induction at 2 µM (Renilla_ERa; Table 15, 2 uM): 1.1; fold induction at 10 µM (Renilla_ERa; Table 15, 10 uM): 0.9; fold induction at 40 µM (Renilla_ERa; Table 15, 40 uM): 0.6
8 |  |  |  |  |  |  | 1.6 | 0.7 | 1.4 | 1.9 | 0.6 | 1.1 | Cc1ccc(NC(=O)c2n[nH]c3c2CCCCC3)cc1C [Compound Z2] |  |  |  |  |  |  | 1.2 | 1.8 | fold induction at 40 µM (Renilla; Table 15, 40 uM): 1.2; fold induction at 2 µM (Renilla_ERa; Table 15, 2 uM): 1.2; fold induction at 10 µM (Renilla_ERa; Table 15, 10 uM): 1.1; fold induction at 40 µM (Renilla_ERa; Table 15, 40 uM): 1
9 | 0.8 | 0.7 | 0.8 | 1.2 | 0.5 | 0.6 |  |  |  |  |  |  | COc1ccc(-c2cc3n(n2)C(N)=C(C#N)C(c2ccc(N4CCOCC4)cc2)(C(F)(F)F)N3)cc1OC (stereo not drawn) [Compound Z45] | 1.2 | 1.2 | 1.1 | 1.1 | 0.8 | 1 |  |  | 
10 | 1.0 | 0.4 | 0.8 | 0.7 | 0.6 | 0.4 |  |  |  |  |  |  | N#CC1=C(N)n2nc(-c3ccccc3)cc2NC1(c1ccc(N2CCOCC2)cc1)C(F)(F)F (stereo not drawn) [Compound Z49] | 1 | 0.7 | 0.8 | 1 | 0.7 | 0.8 |  |  | 
11 |  |  |  |  |  |  | 2.4 | 2.4 | 1.5 | 0.9 | 1.2 | 2.5 | COc1cccc(-c2noc(Cn3ncccc3=O)n2)c1 [Compound Z5] |  |  |  |  |  |  | 1 | 0.9 | fold induction at 40 µM (Renilla; Table 15, 40 uM): 1.2; fold induction at 2 µM (Renilla_ERa; Table 15, 2 uM): 1; fold induction at 10 µM (Renilla_ERa; Table 15, 10 uM): 1; fold induction at 40 µM (Renilla_ERa; Table 15, 40 uM): 1
12 | 1.4 | 1.4 | 1.4 | 1.1 | 1.2 | 1.1 |  |  |  |  |  |  | CNC(=O)c1cnc2c(C)cc(C)cc2c1NCCCN(C)C [Compound Z30] | 1.1 | 1.1 | 0.7 | 1.1 | 1.1 | 1.6 |  |  | 
13 | 1.3 | 0.5 | 1.3 | 1.3 | 0.7 | 2.1 |  |  |  |  |  |  | CCOC(=O)c1cnc2c(C)cc(C)cc2c1N1CCCC(N(C)C)C1 (stereo not drawn) [Compound Z27] | 1.2 | 1.2 | 0.9 | 1.2 | 1.2 | 0.8 |  |  | 
